Measurements published in ChEMBL document CHEMBL1201862, “PubChem BioAssay data set” (2004).
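These data come from cells grown in 96-well plates and exposed to compound for 48 hours at five concentrations. The concentration for 50% growth inhibition is given as GI50.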 Calls of active or inactive are those of the source. Cut-off read from the data, not from the text of the source: active = GI50 up to about 1.1 µM and inactive = higher.

Columns and labels:
Assay in all cases: NCI anticancer screen, dose series, 48 h
[1] = tested on: K562
[2] = tested on: T47D
[3] = tested on: SK-MEL-2
[4] = tested on: TK-10
[5] = tested on: CCRF-CEM
[6] = tested on: MDA-MB-231
[7] = tested on: SW-620
[8] = tested on: SK-MEL-28
[9] = tested on: DU-145
[10] = tested on: SF-295
[11] = tested on: UACC-257
[12] = tested on: UO-31
[13] = tested on: MOLT-4
[14] = tested on: OVCAR-8
[15] = tested on: HOP-62
[16] = tested on: OVCAR-3
[17] = tested on: U-251
[18] = tested on: KM12
[19] = tested on: OVCAR-4
[20] = tested on: CAKI-1

Measured: GI50

CN1N=C(c2ccncc2)OC1c1cccc(C(F)(F)F)c1 (stereo not drawn)
inactive: [1] 96.8 µM | [2] 96.6 µM | [3] > 100 µM | [4] > 100 µM | [5] > 100 µM | [6] 41.2 µM | [7] > 100 µM | [8] > 100 µM | [9] > 100 µM | [10] > 100 µM | [11] > 100 µM | [12] > 100 µM | [13] > 100 µM | [14] > 100 µM | [15] > 100 µM | [16] 71.1 µM | [17] > 100 µM | [18] > 100 µM | [19] > 100 µM

Cc1ccc(S(=O)(=O)C2=C([Si](C)(C)C)C3CC2[C@@H]2C4C=CC(CC4)[C@H]32)cc1 (stereo partly drawn)
inactive: [1] > 100 µM | [2] 37.9 µM | [3] 23.3 µM | [4] 27 µM | [6] 26.5 µM | [7] > 100 µM | [8] > 100 µM | [20] 82.6 µM | [9] > 100 µM | [10] 28.4 µM | [11] > 100 µM | [12] > 100 µM | [13] > 100 µM | [14] > 100 µM | [15] 40.8 µM | [16] 93.8 µM | [17] 23.9 µM | [18] > 100 µM | [19] > 100 µM

OC[C@H]1CC(c2nn[nH]n2)[C@H](O)[C@@H]1O (stereo partly drawn)
inactive: [1] > 100 µM | [2] > 100 µM | [4] > 100 µM | [5] > 100 µM | [6] > 100 µM | [7] > 100 µM | [8] > 100 µM | [9] > 100 µM | [10] > 100 µM | [12] > 100 µM | [13] > 100 µM | [14] > 100 µM | [15] > 100 µM | [16] > 100 µM | [17] > 100 µM | [18] > 100 µM | [19] > 100 µM

C#CCNC(=O)NC(CCCCNC(=O)OCc1ccccc1)C(=O)OCc1ccccc1 (stereo not drawn)
inactive: [1] 53.6 µM | [3] 16.6 µM | [4] 37.6 µM | [5] 49.8 µM | [6] > 39.2 µM | [7] > 100 µM | [8] 17.7 µM | [20] > 74 µM | [9] > 100 µM | [10] > 61 µM | [11] 19.7 µM | [12] 21.6 µM | [13] 31 µM | [14] 95.1 µM | [15] > 100 µM | [16] 62.2 µM | [17] > 72.1 µM | [18] 99.8 µM | [19] > 100 µM

COC(=O)[C@H](Cc1ccccc1)NC(=O)NCCN(CCNC(=O)N[C@@H](Cc1ccccc1)C(=O)OC)C(=O)N[C@@H](Cc1ccccc1)C(=O)OC
inactive: [1] 22.3 µM | [2] 22.6 µM | [3] 21.8 µM | [4] 20.1 µM | [6] 23.7 µM | [7] 22.8 µM | [8] 19.4 µM | [20] > 45.8 µM | [9] 21.1 µM | [10] 18.9 µM | [11] 20.7 µM | [12] 24.3 µM | [13] 20.2 µM | [14] 18.3 µM | [15] 20.7 µM | [16] 19.5 µM | [17] 21.8 µM | [18] 20.9 µM | [19] 15.2 µM

C=CCSc1nc2c(N)ncnc2n1C1OC(CO)C(O)C1O (stereo not drawn)
inactive: [1] > 100 µM | [2] > 100 µM | [3] > 100 µM | [4] > 100 µM | [6] > 100 µM | [7] > 100 µM | [8] > 100 µM | [20] > 100 µM | [9] > 100 µM | [10] > 100 µM | [11] > 100 µM | [12] > 100 µM | [13] > 100 µM | [14] > 100 µM | [15] > 100 µM | [16] > 100 µM | [17] > 100 µM | [18] 80.2 µM | [19] > 100 µM

O=C(O)C/C(=C\c1ccco1)C(=O)O
inactive: [1] > 100 µM | [2] > 100 µM | [3] > 100 µM | [4] > 100 µM | [6] > 100 µM | [7] > 100 µM | [8] > 100 µM | [20] > 100 µM | [9] > 100 µM | [10] > 100 µM | [11] > 100 µM | [12] > 100 µM | [13] > 100 µM | [14] > 100 µM | [15] > 100 µM | [16] > 100 µM | [17] > 100 µM | [18] > 100 µM | [19] > 100 µM

Cc1ccc(-c2n[nH]c(=O)n2NC(=O)c2ccccc2C(=O)O)cc1
inactive: [1] > 100 µM | [2] 72.8 µM | [3] > 100 µM | [4] > 100 µM | [6] > 100 µM | [7] > 100 µM | [8] > 100 µM | [20] > 100 µM | [9] > 100 µM | [10] > 100 µM | [11] > 100 µM | [12] > 100 µM | [13] > 100 µM | [14] > 100 µM | [15] > 100 µM | [16] > 100 µM | [17] > 100 µM | [18] > 100 µM

CCc1n[nH]c(=O)n1CCO
inactive: [1] > 100 µM | [2] > 100 µM | [3] > 100 µM | [4] > 100 µM | [6] > 100 µM | [7] > 100 µM | [8] > 100 µM | [20] > 100 µM | [9] > 100 µM | [10] > 100 µM | [11] > 100 µM | [12] > 100 µM | [13] > 100 µM | [14] > 100 µM | [16] > 100 µM | [17] > 100 µM | [18] > 100 µM | [19] > 100 µM

COC(=O)NC(C(F)(F)F)(C(F)(F)F)P1(=O)OCCCO1
inactive: [1] 22.9 µM | [2] 20.4 µM | [4] 37.4 µM | [5] 12.6 µM | [6] 25.3 µM | [7] 20.7 µM | [8] 35.6 µM | [9] 53.8 µM | [10] 23.7 µM | [12] 18.3 µM | [13] 17.1 µM | [14] 27.3 µM | [15] 21.6 µM | [16] 28.3 µM | [17] 13.1 µM | [18] 22.8 µM | [19] 32.6 µM

N#Cc1c(-c2ccc([N+](=O)[O-])cc2)c2c([nH]c1=O)-c1ccccc1CCC2
inactive: [1] 36.7 µM | [2] 21.5 µM | [3] 97.9 µM | [4] > 100 µM | [6] > 100 µM | [7] 63.5 µM | [8] 47.9 µM | [20] > 100 µM | [9] 28.1 µM | [10] 37.2 µM | [11] 80 µM | [12] 86.3 µM | [13] 39.4 µM | [14] 55.3 µM | [15] 40.5 µM | [16] 31.8 µM | [17] 52.5 µM | [18] 40.7 µM | [19] 65.6 µM
